# Measured values: patent US10588865B2, “Tamper resistant oral opioid agonist formulations” (Purdue Pharma L.P., priority 2000, dated 2020)
# Structures can show the parent of a compound that is named as a salt.
# What was measured:
# [1] = in comparison to a 15 mg dose of hydrocodone
# Description: In certain preferred embodiments, the opioid agonist is oxycodone or hydrocodone.
# [2] = after oral doses; cited from earlier work
# [3] = cited from earlier work
# [4] = system: man; details: cited from earlier work
# [5] = system: normal subjects; assay: Example 19: effect of naltrexone on subjective and physiological effects of 15 mg hydrocodone; format: in vivo
# [6] = system: methadone-dependent subjects; details: immediate-release naltrexone, interim analysis
# [7] = system: morphine-dependent subjects; assay: Example 17: precipitated withdrawal after hydrocodone immediate release tablets with naltrexone
# [8] = suggested by clinical data of examples 17, 18 and 19
compound,measurement,setting,value
COc1ccc2c3c1O[C@H]1[C@@H](O)C=C[C@H]4[C@@H](C2)N(C)CC[C@@]341 [Codeine],Calculated Dose (equianalgesic dose),[1],90.0 mg
"COc1ccc2c3c1OC1C(=O)CC[C@H]4[C@@H](C2)N(C)CC[C@]314 (stereo partly drawn) [Hydrocodone, 4,5-epoxy-3-methoxy-17-methylmorphinan-6-one]",Calculated Dose (equianalgesic dose),[1],15.0 mg
CN1CC[C@]23CCCC[C@H]2[C@H]1Cc1ccc(O)cc13 [Levorphanol],Calculated Dose (equianalgesic dose),[1],1.8 mg
CCC(=O)C(CC(C)N(C)C)(c1ccccc1)c1ccccc1 (stereo not drawn) [Methadone],Calculated Dose (equianalgesic dose),[1],9.0 mg
"COc1ccc2c3c1O[C@H]1C(=O)CC[C@@]4(O)[C@@H](C2)N(C)CC[C@]314 [Oxycodone, 4,5-expoxy-14-hydroxy-3-methoxy-17-methylmorphinan-6-one]",Calculated Dose (equianalgesic dose),[1],13.5 mg
C[C@H]1[C@H]2Cc3ccc(O)cc3[C@]1(C)CCN2CC1CC1 [cyclazocine],duration of action,[2],~24 h
"O=C1CC[C@@]2(O)[C@H]3Cc4ccc(O)c5c4[C@@]2(CCN3CC2CC2)[C@H]1O5 [hydrochloride salt of naltrexone, Naltrexone HCl]",water solubility,[3],very water-soluble
same,solubility in water,[3]; hydrochloride salt,about 100 mg/cc
C=CCN1CC[C@]23c4c5ccc(O)c4O[C@H]2C(=O)CC[C@@]3(O)[C@H]1C5 [naloxone],block of the effect of 25 mg of heroin,[4]; One mg intravenously,completely block
same,dose that prevents or promptly reverses the effects of morphine-like opioid agonist,[4]; given intramuscularly or intravenously in man,0.4 to 0.8 mg
same,potency after oral administration compared with parenteral administration,"[4]; oral, first passage through the liver",significantly lower potency
O=C1CC[C@@]2(O)[C@H]3Cc4ccc(O)c5c4[C@@]2(CCN3CC2CC2)[C@H]1O5 [naltrexone],"dose able to antagonize several centrally mediated opioid effects of hydrocodone, including pupillary miosis",[5]; 15 mg hydrocodone,0.4 mg
same,"bio-available, immediate-release dose that will not affect analgesia to any significant degree",[5]; [8],0.125 mg
same,prompt release of bio-available drug that will affect analgesia,[5]; [8],≥ 0.25 mg
same,dose able to elicit the signs and symptoms of withdrawal,[6],0.5 mg
same,liking of the agonist,"[7]; 1 mg naltrexone dose with hydrocodone immediate release tablets, opioid-dependent subjects",less liking of the agonist relative to the combination with placebo
same,withdrawal signs,[7]; subjects in example 17 receiving the 0.25-mg,absence of withdrawal signs
Meperidine,Calculated Dose (equianalgesic dose),[1],135.0 mg
